Melting point data for 63 molecules are collected here from a melting point compilation (Tetko et al.; mined from patent text by program, amines drawn as free bases though some values may be those of a salt).

In general, melting point refers to the temperature of the solid-liquid transition.

As to `O=C(CBr)c1ccc(-c2ccc(F)cc2)cc1`, the melting point lay in the range of 102 to 103 °C.
`CC(C)[C@@H](C(=O)N[C@@H](Cc1ccccc1)[C@@H](O)[C@H](O)[C@H](Cc1ccccc1)NC(=O)[C@H](C(C)C)N(C)C)N(C)C` displayed a melting point of 200 to 204 °C.
Take `CCCC(=O)Oc1ccc(-c2nc(-c3ccc(N(C)C)cc3)c(C)[nH]2)cc1OC`: the melting point lay in the range of 62 to 64 °C.
Then `COc1cc(NCCCCCCN2C(=O)c3ccccc3C2=O)c2ncccc2c1`, with 123 to 124 °C; and `O=C(Nc1ccc2[nH]c(=O)oc2c1)C(=O)N1CCC(Cc2ccc(Cl)cc2)CC1`, with 147 to 148 °C.
Then `COc1ccc(-c2nc3cc(OC)cc(-c4ccccc4)c3o2)cc1`, with 92 °C; and `CCOC(=O)Cc1c(COC(C)=O)[nH]c(C(=O)OCc2ccccc2)c1C`, with 117 to 119 °C; and `N#CC(F)(F)C(F)(F)C(F)(F)C(F)(F)C#N`, with 132 °C.
With `Cc1cc(CCCCCCCOc2ccc(C3=NCCO3)cc2Cl)on1`, the melting point came out at 88 °C.
Turning to `CCC(C(CC(=O)OC)c1ccc2c(c1)OCO2)[N+](=O)[O-]` (stereo not drawn), the melting point lay in the range of 185 to 189 °C.
Under `O=Cc1cc(Cc2ccccc2)ccc1O` stands 78 to 79 °C.
Then `N#CC(=O)c1ccccc1Cl`, with 33 °C.
Then `Cn1c(C(=O)NCCCn2ccnc2)cc2ccccc21`, with 125 to 129 °C; and `COC(=O)c1ccnc(N2CCN(Cc3ccncc3)C2=O)c1`, with 111 to 113 °C.
With `Oc1nc2ccc3c(Br)cccc3c2nc1O`, the melting point is greater than 300 °C.
Under `CC(=O)c1nc2ccc(C)cc2cc1O` stands 124 to 126 °C; under `CCN(CC)Cc1ccc(CN2C(=O)COc3ccc(C=C4SC(=O)NC4=O)cc32)cc1`, 244 to 246 °C.
On to `CC(C)Oc1ccc(-n2c(C(=O)O)c(Cl)c3cc(Oc4ccc(C(F)(F)F)cc4)ccc32)cc1`, for which the melting point is 148 to 150 °C.
For the molecule `CSc1nc2[nH]c3c(c(=O)n2n1)SCCC3`, the melting point fell in the range of 314 to 318 °C.
Consider `Cc1ccc(C(=O)c2ccc(CC#N)n2C)c(Cl)c1`, for which the melting point is 116 to 118 °C.
`Cc1cccc(C)c1N1C(=N)N(c2cccc(C(F)(F)F)c2)CC1C` (stereo not drawn): the melting point was in the range of 95 to 98 °C.
As to `CCN1CCN(c2ccc(Nc3cc(-c4cccc(-n5ncc6cc(C(C)(C)C)cc(F)c6c5=O)c4CO)nn(C)c3=O)nc2)CC1`, the melting point was 245 to 247 °C.
Under `CNC(=O)c1ncn(-c2cc3c(=O)n(NS(C)(=O)=O)c(=O)[nH]c3cc2C(F)(F)F)n1` stands 257 to 260 °C; under `N#Cc1cncnc1N1CCc2ccccc2CC1`, 148 to 150 °C.
In the case of `CCOC(=O)c1cn(C2CC2)c2nc(Sc3ccc(C)cc3)c(F)cc2c1=O`, the melting point was in the range of 186 to 187 °C.
Under `CC(C)c1nc(CN(C)C(=O)NC(C(=O)NC(Cc2ccccc2)CC(O)C(Cc2ccccc2)NC(=O)OCc2ccno2)C(C)C)cs1` (stereo not drawn) stands 60 to 62 °C; under `CCCNC(=O)Oc1ccc(C(O)(CC)c2ccc(Cl)cc2)cc1` (stereo not drawn), 71 to 72 °C; under `CC(=O)c1cc(C#N)c(=O)n(C=CN(C)C)c1`, 267 to 270 °C.
Then `COC(=O)c1cc(NC(=O)c2ccc(Cl)cc2)c2cc(Cc3ccc(F)cc3)cnc2c1O`, with 253 to 254 °C; and `N#Cc1cnn2c(C(F)(F)F)cc(-c3cccc(C(F)(F)F)c3)nc12`, with 192 °C; and `COc1nc(N)c(Cl)cc1C(=O)CCC1CCN(CC(O)C(C)(C)C)CC1` (stereo not drawn), with 134 °C.
`CCOc1cc2c(Nc3cc(OC)c(Cl)cc3Cl)c(C#N)cnc2cc1OCCN1CCN(C)CC1` displayed a melting point of 141 to 143 °C.
`Cc1ccc(C(=O)Nc2nc(-c3ccccc3)c(-c3nc4ccccc4c(=O)n3-c3ccc(Cl)cc3)s2)cc1` showed a melting point greater than 275 °C.
Then `Nc1cc(F)c2c(c1)Cc1cc(F)ccc1-2`, with 119 to 120 °C.
Under `CCCc1c(OCCCCCCc2cccc(OCCCCCCCCC(=O)O)c2CCC(=O)O)ccc2c1OCCC2=O` stands 63 to 65 °C.
`CCCCCCCCCCCCCCCCCc1nc(N)nc(N)n1` registered a melting point of 114 to 116 °C.
Turning to `CCc1ccc(N(Cc2ccc(N3CCOCC3)cc2)C(=O)C2CCCc3c(O)cccc32)cc1` (stereo not drawn), the melting point was found to be 200 °C.
Molecule `CC(=O)O[C@H]1C[C@@H](n2ccc(N)nc2=O)[C@H](O)[C@@H]1O` (racemic) yielded a melting point of 121 to 124 °C.
Then `Nc1nc(NCCO)c2ncn(C3C=CC(CO)C3)c2n1` (stereo not drawn), with 150 to 152 °C.
Under `CNc1cn(-c2cncc(F)c2)nc1Cl` stands 118 to 119 °C; under `O=C(NN1CCCCC1)c1ccc(-c2ccc(Cl)cc2)c(-c2ccc(Cl)cc2Cl)c1`, 182 °C; under `O=C(N=CNO)c1nccc2c1[nH]c1ccccc12`, 235 to 240 °C.
Under `CCOC(=O)c1ccc(CSc2nnc(S)s2)cc1` stands 114 to 115 °C; under `CC(C)C[C@H](NC(=O)c1cnccn1)C(=O)O`, 36 to 38 °C; under `CN(C)N=Nc1cscc1C(N)=O`, 168 to 172 °C.
For `CN1CCC23c4c5ccc(O)c4OC2C(=O)CCC3(F)C1C5` (stereo not drawn), the melting point was in the range of 215 to 217 °C.
Then `Cn1c2c(n(C)c1=O)CC(=NNC(=N)N)C=C2`, with 238 °C; and `Cc1nc2c(O)c(CCC(=O)c3ccccc3)c(C(=O)N(C)C)cc2n1C`, with 223 to 224 °C; and `NS(=O)(=O)c1cccc(C(O)C(F)(F)F)c1` (stereo not drawn), with 130 to 132 °C.
Then `COc1cc2ncnc(Nc3cccc(N=[N+]=[N-])c3)c2cc1OC`, with 110 to 113 °C.
As for `Cc1noc(NS(=O)(=O)c2ccccc2-c2ccccc2CO)c1C`, the melting point was in the range of 70 to 80 °C.
Under `Nc1cccc(-c2ccc(CCN3CCN(C(=O)Nc4ccccc4)CC3)cc2)n1` stands 60 °C; under `O=C(O)CCCCCCCOc1ccccc1O`, 60 to 64 °C.
Then `Cc1c(C)c2c(c(C)c1NC(=O)NC(C)(C)C)C(O)(c1ccc3ccccc3c1)C(C)(C)O2` (stereo not drawn), with 212 to 214 °C; and `Cc1ccc([N+](=O)[O-])c(C=C(C(=O)O)C(=O)O)c1`, with 180 to 182 °C; and `CCn1cc(C(=O)O)c(=O)c2cc(Cl)c(N3CCCC3)cc21`, with 325 °C.
In turn, `CC(=O)Nc1nc(CCc2ccc(N)cc2)cs1` registered a melting point of 102 to 104 °C.
Then `Cc1ccccc1-c1ccc(C(=O)N2Cc3ccc(C(=O)NCc4cccnc4)n3Cc3ccccc32)cc1C`, with 147 to 149 °C; and `CCC(NC(=NC#N)Nc1ccc(N(C)C)nc1)c1ccccc1` (stereo not drawn), with 107 to 113 °C.
As for `O=c1[nH]c2c([nH]1)-c1ccncc1CC2`, the melting point was greater than 310 °C.
Under `O=c1c(Cl)c(N2CCOCC2)oc2ccccc12` stands 127 to 128 °C; under `COC(=O)c1ccc2c(c1)c1cc(-c3ccc(CN4CCOCC4)cc3)c(=O)n(C)c1n2C`, 175 °C.
Then `CCOC(=O)c1cc2cc(OCCCOC)cc(NS(=O)(=O)c3ccccn3)c2[nH]1`, with 126 to 127 °C.
